Results taken from US20170334899A1, “AMINO-SUBSTITUTED ISOTHIAZOLES” (Bayer Pharma Aktiengesellschaft, priority 2014, published 2017).

Biological target: T1, human kinase Mps-1 (Homo sapiens, UniProt P33981)
T1 construct: N-terminally GST-tagged human full length recombinant Mps-1 kinase; GST (N); purchased Invitrogen, Karslruhe, Germany PV4071
T1 sequence (P33981 1-857): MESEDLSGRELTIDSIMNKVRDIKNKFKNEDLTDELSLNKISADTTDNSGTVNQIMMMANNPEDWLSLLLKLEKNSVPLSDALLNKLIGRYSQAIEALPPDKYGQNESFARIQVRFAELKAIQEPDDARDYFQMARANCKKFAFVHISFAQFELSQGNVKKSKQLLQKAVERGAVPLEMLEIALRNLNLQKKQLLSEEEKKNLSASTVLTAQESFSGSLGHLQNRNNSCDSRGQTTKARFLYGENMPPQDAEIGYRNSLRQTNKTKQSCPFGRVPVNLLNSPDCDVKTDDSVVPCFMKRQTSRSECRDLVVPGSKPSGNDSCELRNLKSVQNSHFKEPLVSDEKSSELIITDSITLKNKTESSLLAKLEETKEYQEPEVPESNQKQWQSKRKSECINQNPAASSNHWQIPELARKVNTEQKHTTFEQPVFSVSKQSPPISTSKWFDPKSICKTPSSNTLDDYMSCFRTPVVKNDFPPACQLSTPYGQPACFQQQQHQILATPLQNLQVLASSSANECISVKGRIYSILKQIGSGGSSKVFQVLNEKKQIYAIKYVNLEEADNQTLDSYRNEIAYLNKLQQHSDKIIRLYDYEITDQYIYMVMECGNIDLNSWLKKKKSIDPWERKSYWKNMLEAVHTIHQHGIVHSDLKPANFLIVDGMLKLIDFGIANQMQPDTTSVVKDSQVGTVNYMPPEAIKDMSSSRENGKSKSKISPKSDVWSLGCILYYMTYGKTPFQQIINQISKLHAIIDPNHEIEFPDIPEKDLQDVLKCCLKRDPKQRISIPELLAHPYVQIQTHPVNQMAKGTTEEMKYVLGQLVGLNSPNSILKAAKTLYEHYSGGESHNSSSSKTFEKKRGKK
Experiment: Mps-1 kinase assay (TR-FRET)
Type: biochemical
Conditions: Mps-1 TR-FRET kinase assay; avg; read-out: Mps1 avg (IC50 [mol/l])
Summary of the method: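 Inhibition normalised between uninhibited reaction (0%) and enzyme-free wells (100%), using the blank-corrected TR-FRET 665/620 nm ratio after EDTA stop. Reaction: ~0.5 nM GST-Mps-1 full length, 10 μM ATP, 1 μM biotin-peptide, 60 min at 22 °C, after 15 min compound pre-binding, pH 7.7.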

| IC50 | SMILES |
| --- | --- |
| ≥ 20 µM | Cc1nsc(Nc2cncc(C(F)(F)F)n2)c1C(=O)Nc1ccc(OC2CCNCC2)nc1 [Example 13, 3-Methyl-N-[6-(piperidin-4-yloxy)pyridin-3-yl]-5-{[6-(trifluoromethyl)pyrazin-2-yl]-amino}-1,2-thiazole-4-carboxamide] |
| ≥ 20 µM | Cc1nsc(Nc2cncc(C(F)(F)F)n2)c1C(=O)Nc1ccc(OC2CCN(CCF)CC2)nc1 [Example 14, N-(6-{[1-(2-Fluoroethyl)piperidin-4-yl]oxy}pyridin-3-yl)-3-methyl-5-{[6-(trifluoro-methyl)pyrazin-2-yl]amino}-1,2-thiazole-4-carboxamide] |
| ≥ 20 µM | Cc1nsc(Nc2cncc(C(F)(F)F)n2)c1C(=O)Nc1ccc(OC2CCN(CC(F)(F)F)CC2)nc1 [Example 16, 3-Methyl-N-(6-{[1-(2,2,2-trifluoroethyl)piperidin-4-yl]oxy}pyridin-3-yl)-5-{[6-(trifluoromethyl)pyrazin-2-yl]amino}-1,2-thiazole-4-carboxamide] |
| 18 µM | CC(=O)N1CCC(Oc2ccc(NC(=O)c3c(C)nsc3Nc3cncc(C(F)(F)F)n3)cn2)CC1 [Example 17, N-{6-[(1-Acetylpiperidin-4-yl)oxy]pyridin-3-yl}-3-methyl-5-{[6-(trifluoromethyl)-pyrazin-2-yl]amino}-1,2-thiazole-4-carboxamide] |
| ≥ 20 µM | Cc1nsc(Nc2cnc3ccccc3n2)c1C(=O)Nc1ccc(OC2CCN(C(=O)OC(C)(C)C)CC2)nc1 [Example 18, tert-Butyl 4-{[5-({[3-methyl-5-(quinoxalin-2-ylamino)-1,2-thiazol-4-yl]carbonyl}-amino)pyridin-2-yl]oxy}piperidine-1-carboxylate] |
| ≥ 20 µM | Cc1nsc(Nc2cnc3ccccc3n2)c1C(=O)Nc1ccc(OC2CCNCC2)nc1 [Example 19, 3-Methyl-N-[6-(piperidin-4-yloxy)pyridin-3-yl]-5-(quinoxalin-2-ylamino)-1,2-thiazole-4-carboxamide] |
| ≥ 20 µM | Cc1nsc(Nc2cnc3ccccc3n2)c1C(=O)Nc1ccc(OC2CCN(CC(F)F)CC2)nc1 [Example 20, N-(6-{[1-(2,2-difluoroethyl)piperidin-4-yl]oxy}pyridin-3-yl)-3-methyl-5-(quinoxalin-2-ylamino)-1,2-thiazole-4-carboxamide] |
| > 20 µM | CCN(CC)CCNC(=O)c1cccc(NC(=O)c2c(C)nsc2Nc2cc(C#N)ccn2)c1 [Example 174, 5-[(4-cyanopyridin-2-yl)amino]-N-(3-{[2-(diethylamino)ethyl]carbamoyl}phenyl)-3-methyl-1,2-thiazole-4-carboxamide] |
| > 20 µM | Cc1nsc(Nc2cc(C#N)ccn2)c1C(=O)Nc1cccc(C(=O)NC2CC2)c1 [Example 175, 5-[(4-cyanopyridin-2-yl)amino]-N-[3-(cyclopropylcarbamoyl)phenyl]-3-methyl-1,2-thiazole-4-carboxamide] |
| > 20 µM | COC(=O)CCc1cccc(NC(=O)c2c(C)nsc2Nc2ccc(C#N)cn2)c1 [Example 176, methyl 3-{3-[({5-[(5-cyanopyridin-2-yl)amino]-3-methyl-1,2-thiazol-4-yl}carbonyl)amino]phenyl}propanoate] |
| > 20 µM | Cc1nsc(Nc2cc(C#N)ccn2)c1C(=O)Nc1ccc(NC(=O)OC(C)(C)C)cc1 [Example 177, tert-butyl {4-[({5-[(4-cyanopyridin-2-yl)amino]-3-methyl-1,2-thiazol-4-yl}carbonyl)amino]phenyl}carbamate] |
| > 20 µM | Cc1nsc(Nc2cnc3ccccc3n2)c1C(=O)Nc1cccc(NC(=O)OC(C)(C)C)c1 [Example 178, tert-butyl [3-({[3-methyl-5-(quinoxalin-2-ylamino)-1,2-thiazol-4-yl]carbonyl}amino)-phenyl]carbamate] |
| > 20 µM | Cc1nsc(Nc2ccc(C#N)cn2)c1C(=O)Nc1cccc(NC(=O)OC(C)(C)C)c1 [Example 179, tert-butyl {3-[({5-[(5-cyanopyridin-2-yl)amino]-3-methyl-1,2-thiazol-4-yl}carbonyl)amino]phenyl}carbamate] |
| > 20 µM | Cc1nsc(Nc2ccc(C#N)cn2)c1C(=O)Nc1cccc(N)c1 [Example 180, N-(3-aminophenyl)-5-[(5-cyanopyridin-2-yl)amino]-3-methyl-1,2-thiazole-4-carboxamide] |
| > 20 µM | Cc1nsc(Nc2cnc3ccccc3n2)c1C(=O)Nc1ccc(C(=O)OC(C)(C)C)cc1 [Example 181, tert-butyl 4-({[3-methyl-5-(quinoxalin-2-ylamino)-1,2-thiazol-4-yl]carbonyl}amino)benzoate] |
| > 20 µM | Cc1nsc(Nc2cc(C#N)ccn2)c1C(=O)Nc1ccc(C(=O)OC(C)(C)C)cc1 [Example 182, tert-butyl 4-[({5-[(4-cyanopyridin-2-yl)amino]-3-methyl-1,2-thiazol-4-yl}carbonyl)amino]benzoate] |
| > 20 µM | Cc1nsc(Nc2cc(C#N)ccn2)c1C(=O)Nc1cccc(NC(=O)C(C)(C)C)c1 [Example 183, 5-[(4-cyanopyridin-2-yl)amino]-N-{3-[(2,2-dimethylpropanoyl)amino]phenyl}-3-methyl-1,2-thiazole-4-carboxamide] |
| > 20 µM | Cc1nsc(Nc2cnccn2)c1C(=O)Nc1ccc(C(=O)OC(C)(C)C)cc1 [Example 184, tert-butyl 4-({[3-methyl-5-(pyrazin-2-ylamino)-1,2-thiazol-4-yl]carbonyl}amino)benzoate] |
| > 20 µM | Cc1nsc(Nc2cnc3ccccc3n2)c1C(=O)Nc1ccc(NC(=O)C(C)(C)C)cc1 [Example 185, N-{4-[(2,2-dimethylpropanoyl)amino]phenyl}-3-methyl-5-(quinoxalin-2-ylamino)-1,2-thiazole-4-carboxamide] |
| > 20 µM | Cc1nsc(Nc2cnc3ccccc3n2)c1C(=O)Nc1cccc(NC(=O)C(C)(C)C)c1 [Example 186, N-{3-[(2,2-dimethylpropanoyl)amino]phenyl}-3-methyl-5-(quinoxalin-2-ylamino)-1,2-thiazole-4-carboxamide] |
| 5.4 µM | Cc1nsc(Nc2cnc3ccccc3n2)c1C(=O)Nc1ccc(C(=O)O)cc1 [Example 187, 4-({[3-methyl-5-(quinoxalin-2-ylamino)-1,2-thiazol-4-yl]carbonyl}amino)benzoic acid] |
| > 20 µM | Cc1nsc(Nc2cnc3ccccc3n2)c1C(=O)Nc1ccccc1S(C)(=O)=O [Example 188, 3-methyl-N-[2-(methylsulfonyl)phenyl]-5-(quinoxalin-2-ylamino)-1,2-thiazole-4-carboxamide] |
| > 20 µM | Cc1nsc(Nc2cncc(C(F)(F)F)n2)c1C(=O)Nc1ccc(OC2CCCN(C(=O)OC(C)(C)C)C2)nc1 (stereo not shown) [Example 189, tert-butyl 3-[(5-{[(3-methyl-5-{[6-(trifluoromethyl)pyrazin-2-yl]amino}-1,2-thiazol-4-yl)carbonyl]amino}pyridin-2-yl)oxy]piperidine-1-carboxylate] |
| > 20 µM | Cc1nsc(Nc2cncc(C(F)(F)F)n2)c1C(=O)Nc1ccc(OCCCNC(=O)OC(C)(C)C)nc1 [Example 190, tert-butyl {3-[(5-{[(3-methyl-5-{[6-(trifluoromethyl)pyrazin-2-yl]amino}-1,2-thiazoL-4-yl)carbonyl]amino}pyridin-2-yl)oxy]propyl}carbamate] |
| > 20 µM | Cc1nsc(Nc2cncc(C(F)(F)F)n2)c1C(=O)Nc1ccc(OCCNC(=O)OC(C)(C)C)nc1 [Example 191, tert-butyl {2-[(5-{[(3-methyl-5-{[6-(trifluoromethyl)pyrazin-2-yl]amino}-1,2-thiazol-4-yl)carbonyl]amino}pyridin-2-yl)oxy]ethyl}carbamate] |
| > 20 µM | Cc1nsc(Nc2cnc(C(F)(F)F)cn2)c1C(=O)Nc1ccc(OCCNC(=O)OC(C)(C)C)nc1 [Example 192, tert-butyl {2-[(5-{[(3-methyl-5-{[5-(trifluoromethyl)pyrazin-2-yl]amino}-1,2-thiazol-4-yl)carbonyl]amino}pyridin-2-yl)oxy]ethyl}carbamate] |
| > 20 µM | Cc1nsc(Nc2cncc(C(F)(F)F)n2)c1C(=O)Nc1ccc(C(=O)OC(C)(C)C)cc1 [Example 193, tert-butyl tert-butyl 4-{[(3-methyl-5-{[6-(trifluoromethyl)pyrazin-2-yl]amino}-1,2-thiazol-4-yl)carbonyl]amino}benzoate] |
| > 10 µM | Cc1nsc(Nc2cncc(C(F)(F)F)n2)c1C(=O)Nc1cccc(S(C)(=O)=O)c1 [Example 194, 3-methyl-N-[3-(methylsulfonyl)phenyl]-5-{[6-(trifluoromethyl)pyrazin-2-yl]amino}-1,2-thiazole-4-carboxamide] |
